Test results as given in patent EP0054756A2, “Antibacterial benzylpyrimidines” (THE WELLCOME FOUNDATION LIMITED, priority 1980, dated 1982).
Values after ≈ are worked out from the molar mass of the structure shown. Where a name gives a salt, the structure may show the parent alone. Read-outs that look alike come from different tables or passages of the source.

Legend:
Dihydrofolate reductase [1] = molecular target: Dihydrofolate reductase (Neisseria gonorrhoeae, UniProt P04174); experiment: biochemical; details: N. gonorrhea enzyme; read-out: Dihydrofolate reductase inhibition, I50 x 10^8
Dihydrofolate reductase [2] = molecular target: Dihydrofolate reductase (Escherichia coli, UniProt P0ABQ4); experiment: Dihydrofolate reductase inhibition; type: biochemical, E. coli
Dihydrofolate reductase [3] = molecular target: T1, Dihydrofolate reductase (Rattus norvegicus, UniProt Q920D2); experiment: Dihydrofolate reductase inhibition; type: biochemical, Rat liver
T1 construct: Rat liver; from tissue; host or cells: rat liver
T1 sequence (Q920D2 1-187): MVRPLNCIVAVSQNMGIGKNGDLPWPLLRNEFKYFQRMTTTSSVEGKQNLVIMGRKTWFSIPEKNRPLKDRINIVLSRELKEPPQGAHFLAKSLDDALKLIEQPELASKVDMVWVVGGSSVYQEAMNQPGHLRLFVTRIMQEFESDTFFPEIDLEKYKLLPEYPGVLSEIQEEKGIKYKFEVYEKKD

[4] = LD50 intraperitoneal in male rats; details: rat, in vivo, ip
Protocol: The LD50's ( expressed in rng/kg intraperitoneal) of two compounds of the present invention were determined in male rats.

St. pyogenes = experiment: In vitro antibacterial activity (MIC); type: cell-based; details: Streptococcus pyogenes
Strep.Faecalis CN 478 = experiment: In vitro antibacterial activity (MIC); type: cell-based; details: Enterococcus faecalis, CN478
Staph.aureus CN 491 = experiment: In vitro antibacterial activity (MIC); type: cell-based; details: Staphylococcus aureus, CN491
E. coli CN 314 = experiment: In vitro antibacterial activity (MIC); type: cell-based; details: Escherichia coli, CN314
N. gonorrhea [5] = experiment: In vitro antibacterial activity versus TMP, Wellcome test; type: cell-based; details: activity relative to trimethoprim
N. gonorrhea [6] = experiment: In vitro antibacterial activity versus TMP, Difco test; type: cell-based; details: activity relative to trimethoprim
Dihydrofolate reductase [7] = molecular target: Dihydrofolate reductase (Plasmodium berghei, UniProt Q27713); experiment: biochemical; details: P. berghei enzyme; read-out: Dihydrofolate reductase inhibition, I50 x 10^8
Staphylococcus aureus [8] = experiment: In vitro MIC against bovine mastitis strains; type: cell-based; details: read-out: Approximate MIC
Source text: (§1) All organisms were isolated from the bovine udder.

Streptococcus agalactiae = experiment: In vitro MIC against bovine mastitis strains; type: cell-based; details: read-out: Approximate MIC
Source text: as §1

[9] = system: Streptococcus dysgalactiae; experiment: In vitro MIC against bovine mastitis strains; type: cell-based; details: read-out: Approximate MIC
Source text: as §1

Streptococcus uberis = experiment: In vitro MIC against bovine mastitis strains; type: cell-based; details: Internal Ref. No. 359, isolated from the bovine udder, read-out: Approximate MIC
Source text: as §1

Staphylococcus aureus [10] = experiment: In vitro MIC against bovine mastitis strains; type: cell-based; details: "OXFORD", Internal Ref. No. 6571, read-out: Approximate MIC
[11] = read-out: MIC St. pyogenes CN 10
[12] = read-out: MIC St. pyogenes S3640
[13] = Internal Ref. No. 316, isolated from the bovine udder
[14] = Internal Ref. No. 317, isolated from the bovine udder
[15] = Internal Ref. No. 348, isolated from the bovine udder
[16] = Internal Ref. No. 349, isolated from the bovine udder
[17] = Internal Ref. No. 352, isolated from the bovine udder
[18] = Internal Ref. No. 353, isolated from the bovine udder
[19] = Internal Ref. No. 321, isolated from the bovine udder
[20] = Internal Ref. No. 371, isolated from the bovine udder
[21] = Internal Ref. No. 366, isolated from the bovine udder
[22] = Internal Ref. No. 367, isolated from the bovine udder

Compound | IC50 (Dihydrofolate reductase [1]) [nM] | IC50 (Dihydrofolate reductase [2]) [nM] | IC50 (Dihydrofolate reductase [3]) [nM] | MIC (St. pyogenes; [11]) [µg/mL] | MIC (St. pyogenes; [12]) [µg/mL] | MIC (Strep.Faecalis CN 478) [µg/mL] | MIC (Staph.aureus CN 491) [µg/mL] | MIC (E. coli CN 314) [µg/mL] | Act., vs TMP N. gonorrhea Wellcome test (N. gonorrhea [5]) | Act., vs TMP N. gonorrhea Difco test (N. gonorrhea [6]) | IC50 (Dihydrofolate reductase [7]) [nM] | MIC (Staphylococcus aureus [8]; [13]) [µM] | MIC (Staphylococcus aureus [8]; [14]) [µM] | MIC (Staphylococcus aureus [8]; [15]) [µM] | MIC (Staphylococcus aureus [8]; [16]) [µM] | MIC (Staphylococcus aureus [8]; [17]) [µM] | MIC (Staphylococcus aureus [8]; [18]) [µM] | MIC (Streptococcus agalactiae; [19]) [µM] | MIC (Streptococcus agalactiae; [20]) [µM] | MIC [9, 21] [µM] | also measured
COc1cc(Cc2cnc(N)nc2N)cc(OCCCCOc2ccccc2)c1OC [Example 10, 2,4-Diamino-5-(3,4-dimethoxy-5-(4-phenoxybutoxy)benzyl)pyrimidine hydrochloride] | 19 | 4 | 74000 | – | – | – | – | – | – | – | – | – | – | – | – | – | – | – | – | – | –
COc1cccc(CCCOc2cc(Cc3cnc(N)nc3N)cc(OC)c2OC)c1 [compound 2, 2,4-Diamino-5-(3,4-dimethoxy-5-(3-(m-methoxyphenyl)propoxy)benzyl)pyrimidine] | 18 | 57 | 83000 | 1 (≈ 2.36 µM) | 1 (≈ 2.36 µM) | 0.3 (≈ 0.707 µM) | 0.3 (≈ 0.707 µM) | 10 (≈ 23.6 µM) | 3.20 | 9.63 | 57 | 0.025 (≈ 0.0106 µg/mL) | 0.025 (≈ 0.0106 µg/mL) | 0.025 (≈ 0.0106 µg/mL) | 0.025 (≈ 0.0106 µg/mL) | 0.075 (≈ 0.0318 µg/mL) | 0.025 (≈ 0.0106 µg/mL) | 0.25 (≈ 0.106 µg/mL) | 0.75 (≈ 0.318 µg/mL) | 0.75 (≈ 0.318 µg/mL) | LD50 [4]: > 100 mg/kg; MIC [9, 22]: 0.25 µM (≈ 0.106 µg/mL); MIC (Streptococcus uberis): 2.5 µM (≈ 1.06 µg/mL); MIC (Staphylococcus aureus [10]): 0.025 µM (≈ 0.0106 µg/mL)
COc1cc(Cc2cnc(N)nc2N)cc(OCCCOc2ccccc2)c1OC [compound 5, 2,4-Diamino-5-(3,4-dimethoxy-5-(3-phenoxypropoxy)benzyl)pyrimidine] | 32 | 37 | 80000 | 0.3 (≈ 0.731 µM) | 0.3 (≈ 0.731 µM) | 0.1 (≈ 0.244 µM) | 0.1 (≈ 0.244 µM) | 1 (≈ 2.44 µM) | 4.12 | 11.28 | 150 | – | – | – | – | – | – | – | – | – | –
COc1cc(Cc2cnc(N)nc2N)cc(OCCCCc2ccccc2)c1OC [compound 3, 2,4-Diamino-5-(3,4-dimethoxy-5-(4-phenylbutoxy)benzyl)pyrimidine] | 18 | 2.3 | 43000 | 0.1 (≈ 0.245 µM) | 0.1 (≈ 0.245 µM) | 0.1 (≈ 0.245 µM) | 0.03 (≈ 0.0734 µM) | 3 (≈ 7.34 µM) | 1.54 | 11.35 | 11 | 0.075 (≈ 0.0306 µg/mL) | 0.025 (≈ 0.0102 µg/mL) | 0.075 (≈ 0.0306 µg/mL) | 0.075 (≈ 0.0306 µg/mL) | 0.075 (≈ 0.0306 µg/mL) | 0.025 (≈ 0.0102 µg/mL) | 0.25 (≈ 0.102 µg/mL) | 0.25 (≈ 0.102 µg/mL) | 0.75 (≈ 0.306 µg/mL) | MIC [9, 22]: 0.75 µM (≈ 0.306 µg/mL); MIC (Streptococcus uberis): 0.25 µM (≈ 0.102 µg/mL); MIC (Staphylococcus aureus [10]): 0.025 µM (≈ 0.0102 µg/mL)
2,4-diamino-5-(3,4-dime-thoxy-5-(3-p-nitrophenyl-propoxy)benzyl)pyrimidine | – | – | – | – | – | – | – | – | – | – | – | – | – | – | – | – | – | – | – | – | IC50 (Dihydrofolate reductase [2]; E. coli enzyme, read-out: Dihydrofolate reductase inhibition, I50 x 10^8): 17 nM; IC50 (Dihydrofolate reductase [3]; Rat liver enzyme, read-out: Dihydrofolate reductase inhibition, I50 x 10^8): 25000 nM
COc1cc(Cc2cnc(N)nc2N)cc(OCCCc2ccccc2)c1OC [compound 1, 2,4-Diamino-5-(3,4-dimethoxy-5-(3-phenylpropoxy)benzyl)pyrimidine] | 15 | 4.8 | 94000 | 0.3 (≈ 0.761 µM) | 0.3 (≈ 0.761 µM) | 0.1 (≈ 0.254 µM) | 0.03 (≈ 0.0761 µM) | 1 (≈ 2.54 µM) | 5.46 | 12.81 | 100 | 0.025 (≈ 0.00986 µg/mL) | 0.025 (≈ 0.00986 µg/mL) | 0.025 (≈ 0.00986 µg/mL) | 0.025 (≈ 0.00986 µg/mL) | 0.075 (≈ 0.0296 µg/mL) | 0.025 (≈ 0.00986 µg/mL) | 0.075 (≈ 0.0296 µg/mL) | 0.75 (≈ 0.296 µg/mL) | 0.75 (≈ 0.296 µg/mL) | LD50 [4]: > 100 mg/kg; MIC [9, 22]: 0.25 µM (≈ 0.0986 µg/mL); MIC (Streptococcus uberis): 2.5 µM (≈ 0.986 µg/mL); MIC (Staphylococcus aureus [10]): 0.025 µM (≈ 0.00986 µg/mL)
